# In PubChem BioAssay AID1436 (PCMD, 2008):
# Inconclusive results are not listed. Active and inactive are the calls of the source. No rule for the calls is given here.
# Target: DNA repair protein RAD51 homolog 1 (Homo sapiens) (UniProt Q06609)
# Assay: inhibitors of RAD51 DNA binding, dose response, biochemical, fluorescence (AID 1436)
# Sequence of DNA repair protein RAD51 homolog 1 (Homo sapiens) (Q06609 whole entry, looked up): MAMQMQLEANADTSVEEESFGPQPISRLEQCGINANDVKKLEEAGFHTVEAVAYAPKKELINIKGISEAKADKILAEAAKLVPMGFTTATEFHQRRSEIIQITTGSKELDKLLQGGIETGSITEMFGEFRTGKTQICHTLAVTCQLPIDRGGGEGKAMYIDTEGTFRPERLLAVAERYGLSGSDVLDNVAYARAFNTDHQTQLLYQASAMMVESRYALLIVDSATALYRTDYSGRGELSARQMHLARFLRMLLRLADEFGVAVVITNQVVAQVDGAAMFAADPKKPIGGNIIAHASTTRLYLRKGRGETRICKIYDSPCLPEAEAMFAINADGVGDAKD
row,Structure (SMILES),IC50
1,COc1cccc2c1C(=O)c1c(O)c3c(c(O)c1C2=O)C[C@@](O)(C(=O)CO)C[C@@H]3O[C@H]1C[C@H](N)[C@@H](O)[C@H](C)O1,> 85 µM (inactive)
2,COC(=O)c1ccc(=O)c2nc3/c(=C/O)c(O)cc(=O)c3[nH]c12,> 42.5 µM (inactive)
